The assay deals with B6C3F1 mice, intracerebral ependymoblastoma, median survival T/C. The assay can be described thus: NCI In Vivo Anticancer Drug Screen. Data for tumor model Ependymoblastoma (intracerebral) in B6C3F1 mice. The following applies: endpoint: median survival time, higher = longer survival. The procedure: The antitumor activity of compounds was measured in mice bearing transplantable tumors. Survival or tumor size were measured and the results are expressed as the measurement made in the treated group (T) divided by the measurement made in the vehicle treated control group (C). The tumor model used in this assay is Ependymoblastoma (intracerebral) in B6C3F1 mice

[1] abbreviates: dose: 0.5 mg/kg/injection, schedule: Q01DX005 (ip), vehicle: saline.
[2] abbreviates: dose: 1.0 mg/kg/injection, schedule: Q01DX005 (ip), vehicle: saline.
Setting [3] is: dose: 2.0 mg/kg/injection, schedule: Q01DX005 (ip), vehicle: saline.
Setting [4] is: dose: 16.0 mg/kg/injection, schedule: Q01DX005 (ip), vehicle: saline + alcohol.
Where [5] appears, read: dose: 16.0 mg/kg/injection, schedule: Q01DX005 (ip), vehicle: saline with Tween-80.
[6] abbreviates: dose: 32.0 mg/kg/injection, schedule: Q01DX005 (ip), vehicle: saline with Tween-80.

Molecules are shown by their SMILES. Values joined by “and” are separate entries in the source; they are usually repeats but may differ in a detail not shown here. Equal values may be shown once. Toxic doses and inconclusive results are not listed.

As for `COC1OC(CO)C(O)C(NC(=O)N(C)N=O)C1O` (stereo not drawn), the T/C is, setting by setting: under setting [1], 101 % of control; (dose: 1.0 mg/kg/injection, schedule: Q01DX005 (ip), vehicle: saline + alcohol) 100 % of control; under setting [2], 103 % of control; (dose: 1.0 mg/kg/injection, schedule: Q## X004 (ip), vehicle: saline + alcohol) 113 % of control; (dose: 1.0 mg/kg/injection, schedule: Q## X006 (ip), vehicle: saline + alcohol) 116 % of control; (dose: 2.0 mg/kg/injection, schedule: Q01DX005 (ip), vehicle: saline + alcohol) 109 % of control. Besides, the T/C under setting [3] was 119 % of control; the T/C (dose: 2.0 mg/kg/injection, schedule: Q## X004 (ip), vehicle: saline + alcohol) was 115 % of control; the T/C (dose: 2.0 mg/kg/injection, schedule: Q#A X002 (ip), vehicle: saline + alcohol) was 107 % of control; the T/C (dose: 4.0 mg/kg/injection, schedule: Q01DX001 (ip), vehicle: saline + alcohol) is 94 % of control and 100 % of control and 110 % of control; the T/C (dose: 4.0 mg/kg/injection, schedule: Q01DX005 (ip), vehicle: saline + alcohol) was 107 % of control; the T/C (dose: 4.0 mg/kg/injection, schedule: Q01DX005 (ip), vehicle: saline) is 108 % of control. The T/C reads like this: (dose: 4.0 mg/kg/injection, schedule: Q01DX005 (oral), vehicle: saline + alcohol) 115 % of control; (dose: 4.0 mg/kg/injection, schedule: Q## X004 (ip), vehicle: saline + alcohol) 118 % of control; (dose: 4.0 mg/kg/injection, schedule: Q## X006 (ip), vehicle: saline + alcohol) 113 % of control; (dose: 4.0 mg/kg/injection, schedule: Q#A X002 (ip), vehicle: saline + alcohol) 97 % of control; (dose: 8.0 mg/kg/injection, schedule: Q01DX001 (ip), vehicle: saline + alcohol) 97 % of control and 106 % of control and 113 % of control; (dose: 8.0 mg/kg/injection, schedule: Q01DX005 (ip), vehicle: saline) 103 % of control. Besides, the T/C is, setting by setting: (dose: 8.0 mg/kg/injection, schedule: Q01DX005 (oral), vehicle: saline + alcohol) 113 % of control; (dose: 8.0 mg/kg/injection, schedule: Q## X004 (ip), vehicle: saline + alcohol) 119 % of control; (dose: 8.0 mg/kg/injection, schedule: Q## X006 (ip), vehicle: saline + alcohol) 118 % of control; (dose: 8.0 mg/kg/injection, schedule: Q#A X002 (ip), vehicle: saline + alcohol) 95 % of control; (dose: 16.0 mg/kg/injection, schedule: Q01DX001 (ip), vehicle: saline + alcohol) 91 % of control and 112 % of control and 117 % of control; (dose: 16.0 mg/kg/injection, schedule: Q01DX001 (oral), vehicle: saline + alcohol) 95 % of control and 108 % of control and 113 % of control. Also, the T/C by setting is: under setting [4], 121 % of control; (dose: 16.0 mg/kg/injection, schedule: Q01DX005 (oral), vehicle: saline + alcohol) 101 % of control; (dose: 16.0 mg/kg/injection, schedule: Q#A X002 (ip), vehicle: saline + alcohol) 109 % of control; (dose: 32.0 mg/kg/injection, schedule: Q01DX001 (ip), vehicle: saline + alcohol) 100 % of control and 103 % of control and 108 % of control; (dose: 32.0 mg/kg/injection, schedule: Q01DX001 (oral), vehicle: saline + alcohol) 91 % of control and 95 % of control and 117 % of control; (dose: 32.0 mg/kg/injection, schedule: Q01DX005 (oral), vehicle: saline + alcohol) 101 % of control. The T/C runs as follows: (dose: 32.0 mg/kg/injection, schedule: Q#A X002 (ip), vehicle: saline + alcohol) 100 % of control; (dose: 64.0 mg/kg/injection, schedule: Q01DX001 (ip), vehicle: saline + alcohol) 103 % of control (2×) and 119 % of control; (dose: 64.0 mg/kg/injection, schedule: Q01DX001 (oral), vehicle: saline + alcohol) 106 % of control and 107 % of control and 109 % of control; (dose: 128.0 mg/kg/injection, schedule: Q01DX001 (oral), vehicle: saline + alcohol) 107 % of control and 112 % of control and 123 % of control; (dose: 256.0 mg/kg/injection, schedule: Q01DX001 (oral), vehicle: saline + alcohol) 107 % of control and 119 % of control.

On to `CN(C)N=Nc1ccc(C(N)=O)cc1`, for which the T/C was 156 % of control under setting [5] and 162 % of control under setting [6].

Turning to `Nc1ccc(S(=O)(=O)c2ccc(N)cc2)cc1`, the T/C is 122 % of control (dose: 25.0 mg/kg/injection, schedule: Q01DX005 (ip), vehicle: saline with Tween-80); 100 % of control (dose: 50.0 mg/kg/injection, schedule: Q01DX005 (ip), vehicle: saline with Tween-80); 108 % of control (dose: 100.0 mg/kg/injection, schedule: Q01DX005 (ip), vehicle: saline with Tween-80).

For `N[C@@H](Cc1ccc(N(CCCl)CCCl)cc1)C(=O)O`, the T/C was 102 % of control (dose: 0.5 mg/kg/injection, schedule: Q01DX001 (ip), vehicle: saline); 93 % of control under setting [1]; 98 % of control and 102 % of control and 105 % of control (dose: 1.0 mg/kg/injection, schedule: Q01DX001 (ip), vehicle: saline); 107 % of control under setting [2]; 102 % of control and 104 % of control and 110 % of control (dose: 2.0 mg/kg/injection, schedule: Q01DX001 (ip), vehicle: saline); 109 % of control under setting [3]. For the same molecule, the T/C reads like this: (dose: 4.0 mg/kg/injection, schedule: Q01DX001 (ip), vehicle: saline) 96 % of control and 103 % of control and 110 % of control; (dose: 8.0 mg/kg/injection, schedule: Q01DX001 (ip), vehicle: saline) 103 % of control and 113 % of control and 117 % of control.

As for `CCCCCC(=O)O[C@]1(C(C)=O)CC[C@H]2[C@@H]3CCC4=CC(=O)CC[C@]4(C)[C@H]3CC[C@@]21C`, the T/C (dose: 8.0 mg/kg/injection, schedule: Q01DX005 (ip), vehicle: Klucel (hydroxypropylcellulose) (HPC)) was 105 % of control; the T/C (dose: 8.0 mg/kg/injection, schedule: Q01DX005 (ip), vehicle: saline + alcohol) was 96 % of control; the T/C (dose: 8.0 mg/kg/injection, schedule: Q01DX005 (ip), vehicle: saline with Tween-80) is 95 % of control and 105 % of control; the T/C (dose: 16.0 mg/kg/injection, schedule: Q01DX005 (ip), vehicle: Klucel (hydroxypropylcellulose) (HPC)) is 106 % of control; the T/C under setting [4] was 106 % of control; the T/C under setting [5] was 115 % of control and 89 % of control. The T/C (dose: 32.0 mg/kg/injection, schedule: Q01DX005 (ip), vehicle: Klucel (hydroxypropylcellulose) (HPC)) was 87 % of control; the T/C (dose: 32.0 mg/kg/injection, schedule: Q01DX005 (ip), vehicle: saline + alcohol) was 102 % of control; the T/C under setting [6] was 98 % of control and 117 % of control; the T/C (dose: 64.0 mg/kg/injection, schedule: Q01DX005 (ip), vehicle: Klucel (hydroxypropylcellulose) (HPC)) was 101 % of control; the T/C (dose: 64.0 mg/kg/injection, schedule: Q01DX005 (ip), vehicle: saline + alcohol) was 104 % of control; the T/C (dose: 64.0 mg/kg/injection, schedule: Q01DX005 (ip), vehicle: saline with Tween-80) is 99 % of control and 105 % of control. The T/C runs as follows: (dose: 128.0 mg/kg/injection, schedule: Q01DX005 (ip), vehicle: Klucel (hydroxypropylcellulose) (HPC)) 86 % of control; (dose: 128.0 mg/kg/injection, schedule: Q01DX005 (ip), vehicle: saline + alcohol) 102 % of control; (dose: 128.0 mg/kg/injection, schedule: Q01DX005 (ip), vehicle: saline with Tween-80) 104 % of control and 107 % of control; (dose: 256.0 mg/kg/injection, schedule: Q01DX005 (ip), vehicle: Klucel (hydroxypropylcellulose) (HPC)) 95 % of control; (dose: 256.0 mg/kg/injection, schedule: Q01DX005 (ip), vehicle: saline + alcohol) 102 % of control; (dose: 256.0 mg/kg/injection, schedule: Q01DX005 (ip), vehicle: saline with Tween-80) 98 % of control and 107 % of control. The T/C is, setting by setting: (dose: 512.0 mg/kg/injection, schedule: Q01DX005 (ip), vehicle: Klucel (hydroxypropylcellulose) (HPC)) 95 % of control; (dose: 512.0 mg/kg/injection, schedule: Q01DX005 (ip), vehicle: saline + alcohol) 113 % of control; (dose: 512.0 mg/kg/injection, schedule: Q01DX005 (ip), vehicle: saline with Tween-80) 95 % of control and 105 % of control.

Take `Nc1ccn(C2OC(COC(=O)C34CC5CC(CC(C5)C3)C4)C(O)C2O)c(=O)n1` (stereo not drawn): the T/C was 98 % of control and 105 % of control (dose: 6.25 mg/kg/injection, schedule: Q01DX005 (ip), vehicle: Klucel (hydroxypropylcellulose) (HPC)); 100 % of control and 105 % of control (dose: 12.5 mg/kg/injection, schedule: Q01DX005 (ip), vehicle: Klucel (hydroxypropylcellulose) (HPC)); 104 % of control and 116 % of control (dose: 25.0 mg/kg/injection, schedule: Q01DX005 (ip), vehicle: Klucel (hydroxypropylcellulose) (HPC)); 109 % of control (dose: 50.0 mg/kg/injection, schedule: Q01DX005 (ip), vehicle: Klucel (hydroxypropylcellulose) (HPC)).

(Values after PubChem BioAssay AID226 (DTP/NCI, 2004).)
